Common to all, as to format: in vivo
One experiment deals with Sorghum halepense. Description: Post-emergence herbicidal action against Sorghum halepense. To be noted: for Herbicidal action: 21 DAT. The method, then:
(§1) When the observed efficacies exceed the formal sum total of the values of the tests with individual applications, they also exceed the expected value according to Colby, which is calculated using the formula below and is likewise regarded as an indication of synergism (cf. S. R. Colby; in Weeds 15 (1967) p. 20 to 22): E^C=A+B−([…])
(§2) Here: • A=efficacy of the active compound (A) in % at an application rate of a g a.i./ha; • B=efficacy of the active compound (B) in % at an application rate of b g a.i./ha; • E^C=expected value of the effect of the combination (A)+(B) in % at the combined application rate a+b g a.i./ha.
(§3) Seeds or rhizome pieces of mono- and dicotyledonous weeds are placed in sandy loam in pots, covered with soil and grown in a greenhouse under good growth conditions (temperature, air humidity, water supply). Three weeks after sowing, the test plants were treated at the three-leaf stage with the compositions according to the invention. The compositions according to the invention formulated as spray powders or as emulsion concentrates were sprayed onto the green plant parts in various dosages with an application rate of 300 to 800 l/ha of water (equivalent). After the test plants have been left to stand in the greenhouse under optimal growth conditions for about 3 to 4 weeks, the action of the preparations is scored visually in comparison to untreated controls. The compositions according to the invention also have good post-emergence herbicidal activity against a broad spectrum of economically important gramineous and broadleaf weeds.

The next experiment concerns Digitaria sanguinalis. Description: Post-emergence herbicidal action against Digitaria sanguinalis. A digest of the protocol: (§4)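 Visual scoring against untreated controls, made 3 to 4 weeks after treatment, gives the % efficacy. Plants grown in pots of sandy loam were sprayed on green parts at the three-leaf stage with formulated compositions at 300 to 800 l/ha water. Combination efficacy above the Colby expected value indicates synergism.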

The next experiment has as its system Brachiaria platyphylla. In words: Post-emergence herbicidal action against Brachiaria platyphylla. A digest of the protocol:
as §4

The subject of another experiment is Abutilon theophrasti. In words: Post-emergence herbicidal action against Abutilon theophrasti. The conditions noted are these: 75 g of a.i./ha.
The subject of a further experiment is Bidens pilosa. Description: Post-emergence herbicidal action against Bidens pilosa. The conditions noted are these: for Herbicidal action: 21 DAT. The method in brief:
as §4

The next experiment concerns Amaranthus palmeri. In words: Post-emergence herbicidal action against Amaranthus palmeri. A digest of the protocol:
as §4

In another experiment the test system is Malva pusilia. In words: Post-emergence herbicidal action against Malva pusilia. To be noted: 42 DAT; 720 g a.i./ha.
The test system of the next experiment is Lysimachia nummularia. In words: Post-emergence herbicidal action against Lysimachia nummularia. To be noted: 45 DAT; 720 g a.i./ha.
For a further experiment, the system named is Ipomoea ssp. Description: Post-emergence herbicidal action against Ipomoea ssp. The conditions noted are these: 45 DAT.
The subject of a further experiment is Kochia scoparia. Description: Post-emergence herbicidal action against Kochia scoparia. To be noted: 21 DAT.
The next experiment concerns Echinochloa crus-galli. In words: Post-emergence herbicidal action against Echinochloa crus-galli. The conditions noted are these: 21 DAT; 50 g a.i./ha. As to the method: as §1, §2, §3
A further experiment deals with Lolium rigidum. Description: Post-emergence herbicidal action against Lolium rigidum.
The subject of the next experiment is Lamium purpureum. Description: Post-emergence herbicidal action against Lamium purpureum. The method in brief:
as §4

A further experiment deals with Alopecurus myosuroides. In words: Post-emergence herbicidal action against Alopecurus myosuroides.
In a further experiment the test system is Veronica hederifolia. Description: Post-emergence herbicidal action against Veronica hederifolia. To be noted: 28 DAT; 450 g a.i./ha.
The subject of a further experiment is Phalaris minor. In words: Post-emergence herbicidal action against Phalaris minor.
The next experiment relates to Centaurea cyano. Description: Post-emergence herbicidal action against Centaurea cyano. The method in brief: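 Greenhouse pot-grown plants sprayed post-emergence at the three-leaf stage, three weeks after sowing, with spray-powder or emulsion-concentrate formulations at various dosages in 300 to 800 l/ha water on green parts.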
In the next experiment the test system is Poa annua. In words: Post-emergence herbicidal action against Poa annua. A digest of the protocol:
as §4

For the next experiment, the system named is Matricaria inodora. In words: Post-emergence herbicidal action against Matricaria inodora.
Another experiment deals with Polygonum convolvulus. Description: Post-emergence herbicidal action against Polygonum convolvulus. The conditions noted are these: 21 DAT; 50 g a.i./ha.
The subject of the next experiment is Bromus sterilis. In words: Post-emergence herbicidal action against Bromus sterilis.

Three molecules from US12171230B2, “Herbicidal compositions” (Bayer Aktiengesellschaft, priority 2018, dated 2024) can be followed below.

Each structure is given as a SMILES string. “And” between values parts separate entries of the source, which are not always exact repeats. Equal entries are not always repeated.

As to `CS(=O)(=O)c1cc(C(F)(F)F)ccc1C(=O)c1cnoc1C1CC1` [(B4.18) Isoxaflutole], in the experiment with Sorghum halepense (45 g of a.i./ha), the “Herbicidal action 21 DAT [%] against Sorghum halepense” value turned out to be 60%. Also, the “Herbicidal action 21 DAT [%] against Digitaria sanguinalis” value in the experiment on Digitaria sanguinalis (15 g of a.i./ha) is 10%; in the experiment with Digitaria sanguinalis (45 g of a.i./ha) it was 25%. The “Herbicidal action 21 DAT [%] against Brachiaria platyphylla” value in the experiment with Brachiaria platyphylla (15 g of a.i./ha) came to 20%; in the experiment on Brachiaria platyphylla (45 g of a.i./ha), 30%. Further, the “Herbicidal action 37 DAT [%] against Abutilon theophrasti” value with Abutilon theophrasti is reported as 58%. Also, the “Herbicidal action 21 DAT [%] against Bidens pilosa” value in the experiment on Bidens pilosa (5 g of a.i./ha) came to 20%; in the experiment on Bidens pilosa (45 g of a.i./ha) it was 60%. Also, the pest or weed control at 5 g/ha in the experiment with Amaranthus palmeri (Amaranthus palmeri, post-emergence, 504 h, 5 g of a.i./ha, read-out: Herbicidal action 21 DAT [%] against Amaranthus palmeri) was determined as 10%. Besides, the pest or weed control at 15 g/ha in the experiment with Amaranthus palmeri (Amaranthus palmeri, post-emergence, 504 h, 15 g of a.i./ha, read-out: Herbicidal action 21 DAT [%] against Amaranthus palmeri) stood at 10%. Also, in the experiment with Amaranthus palmeri (Amaranthus palmeri, post-emergence, 504 h, 45 g of a.i./ha, read-out: Herbicidal action 21 DAT [%] against Amaranthus palmeri), the pest or weed control at 45 g/ha was 20%.
In the case of `O=C(O)CNCP(=O)(O)O` [(B7.5) Glyphosate (CAS 39600-42-5)], the Herbicidal action is reported as 0% with Malva pusilia; 7% in the experiment on Lysimachia nummularia; 2% with Amaranthus palmeri (16 DAT, 1440 g a.i./ha); 0% in the experiment with Ipomoea ssp. (720 g a.i./ha); 0% with Ipomoea ssp. (1440 g a.i./ha).
As to `O=C(O)CNCP(=O)(O)O` [(B7.5) Glyphosate], the Herbicidal action in the experiment on Kochia scoparia (50 g a.i./ha) stood at 35%; in the experiment on Kochia scoparia (150 g a.i./ha), 20%; in the experiment with Sorghum halepense (50 g a.i./ha) it was 30%; with Sorghum halepense (150 g a.i./ha), 70%; with Sorghum halepense (450 g a.i./ha), 85%; in the experiment on Echinochloa crus-galli it was 45%. For the same molecule, the Herbicidal action in the experiment with Digitaria sanguinalis (21 DAT, 50 g a.i./ha) was 80%; in the experiment with Lolium rigidum (14 DAT, 50 g a.i./ha) it was 40%; in the experiment on Lolium rigidum (14 DAT, resistant biotype, 50 g a.i./ha) it was 20%; in the experiment on Lolium rigidum (28 DAT, 50 g a.i./ha), 30%; in the experiment on Lolium rigidum (28 DAT, 150 g a.i./ha) it was 60%; in the experiment with Lamium purpureum (14 DAT, 50 g a.i./ha), 50%. Further, the Herbicidal action in the experiment with Lamium purpureum (28 DAT, 50 g a.i./ha) is 30%; with Lamium purpureum (28 DAT, 150 g a.i./ha), 40%; in the experiment with Lamium purpureum (28 DAT, 450 g a.i./ha), 75%; in the experiment with Alopecurus myosuroides (14 DAT, 50 g a.i./ha) it was 30%; with Alopecurus myosuroides (28 DAT, 50 g a.i./ha), 10%; in the experiment with Alopecurus myosuroides (28 DAT, 150 g a.i./ha), 30%. Besides, the Herbicidal action in the experiment on Alopecurus myosuroides (28 DAT, 450 g a.i./ha) stood at 60%; with Veronica hederifolia, 90%; with Phalaris minor (14 DAT, 50 g a.i./ha), 30%; in the experiment with Phalaris minor (14 DAT, 450 g a.i./ha), 80%; in the experiment on Phalaris minor (28 DAT, 450 g a.i./ha), 30%; in the experiment on Centaurea cyano (14 DAT, 50 g a.i./ha), 30%. Also, the Herbicidal action in the experiment with Centaurea cyano (14 DAT, 150 g a.i./ha) was found to be 60%; in the experiment on Centaurea cyano (28 DAT, 50 g a.i./ha), 30%; with Centaurea cyano (28 DAT, 150 g a.i./ha) it was 60%; with Centaurea cyano (28 DAT, 450 g a.i./ha), 85%; in the experiment with Bidens pilosa (150 g a.i./ha), 75%; with Bidens pilosa (450 g a.i./ha), 85%. In addition, the Herbicidal action was 20% in the experiment on Poa annua (14 DAT, 50 g a.i./ha); 30% with Poa annua (28 DAT, 50 g a.i./ha); 50% and 60% in the experiment with Poa annua (28 DAT, 150 g a.i./ha); 60% in the experiment on Poa annua (28 DAT, 450 g a.i./ha); 40% and 50% with Matricaria inodora (14 DAT, 50 g a.i./ha); 80% in the experiment with Matricaria inodora (28 DAT, 450 g a.i./ha). Also, the Herbicidal action in the experiment with Amaranthus palmeri (21 DAT, (res.), 50 g a.i./ha) is listed as 60%; with Polygonum convolvulus, 10%; with Bromus sterilis (14 DAT, 50 g a.i./ha) it was 30%; in the experiment on Bromus sterilis (28 DAT, 150 g a.i./ha) it was 40%.
